US20230085307A1, “PYRIDAZINONE COMPOUND AND HERBICIDE” (NISSAN CHEMICAL CORPORATION, priority 2019, published 2023)

Assays:
Japanese bulrush [1] = assay: Test Example 1: herbicidal activity, application before weed generation under submerged conditions (Table 16, symbol B); format: in vivo, Japanese bulrush (Schoenoplectus juncoides)
How it was run: (§1)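 Alluvial soil was flooded to 4 cm depth, weed seeds were sown mixed and 2.5-leaf rice seedlings were transplanted. On sowing day, the compound's emulsion, diluted in water to a set dose, was applied to the water surface. Plants grew at 25–30 °C and were scored 0–5 after three weeks.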

oval-leafed pondweed = assay: Test Example 1: herbicidal activity, application before weed generation under submerged conditions (Table 16, symbol C); format: in vivo, oval-leafed pondweed (Monochoria vaginalis)
How it was run: as §1

Japanese bulrush [2] = assay: Test Example 2: herbicidal activity, application during weed generation under submerged conditions (Table 17, symbol B); format: in vivo, Japanese bulrush (Schoenoplectus juncoides); conditions: application during weed generation, submerged conditions
How it was run: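 Alluvial soil in Wagner pots was flooded to 4 cm depth and sown with the three weeds together; pots were kept in a greenhouse at 25° C. to 30° C. At the one to two leaf stage, an emulsion formulation diluted in water to a set rate went onto the water surface; scored three weeks later.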

Chinese sprangletop = assay: Test Example 3: herbicidal effect by foliage application, Wagner pot (Table 18, symbol D); format: in vivo, chinese sprangletop (Leptochloa chinensis)
How it was run: (§2)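 Plants were sown in alluvial soil held under 0.1–0.5 cm standing water and grown 14 days in a greenhouse at 25–30 °C. An emulsifiable formulation, water-diluted to the set dose, was then sprayed onto the foliage, and effects were scored three weeks later using previously defined criteria.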

rice flat sedge = assay: Test Example 3: herbicidal effect by foliage application, Wagner pot (Table 18, symbol E); format: in vivo, rice flat sedge (Cyperus iria)
How it was run: as §2

green foxtail = assay: Test Example 4: herbicidal effect by soil treatment (Table 19, symbol G); format: in vivo, green foxtail (Setaria viridis)
How it was run: (§3)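 Step 1: sow seeds in sterilized diluvial soil, cover ~1.5 cm. Step 2: spray diluted emulsion onto soil surface at predetermined rate. Step 3: greenhouse, 25–30° C, three weeks. Step 4: grade effect on each plant by earlier criteria.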

wild oat [3] = assay: Test Example 4: herbicidal effect by soil treatment (Table 19, symbol I); format: in vivo, wild oat (Avena fatua)
How it was run: as §3

Italian ryegrass = assay: Test Example 4: herbicidal effect by soil treatment (Table 19, symbol K); format: in vivo, Italian ryegrass (Lolium multiflorum)
How it was run: as §3

windgrass [4] = assay: Test Example 4: herbicidal effect by soil treatment (Table 19, symbol L); format: in vivo, windgrass (Apera spica-venti)
How it was run: as §3

redroot pigweed = assay: Test Example 4: herbicidal effect by soil treatment (Table 19, symbol N); format: in vivo, redroot pigweed (Amaranthus retroflexus)
How it was run: as §3

chickweed = assay: Test Example 4: herbicidal effect by soil treatment (Table 19, symbol P); format: in vivo, common chickweed (Stellaria media)
How it was run: as §3

southern crabgrass = assay: Test Example 5: herbicidal effect by foliage application, plastic box (Table 20, symbol F); format: in vivo, southern crabgrass (Digitaria ciliaris); conditions: foliage application, three weeks after application
How it was run: (§4)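 Foliar spray test: emulsion formulation diluted in water to a set application rate, sprayed onto 14-day-old plants raised in diluvial soil at 25° C to 30° C under glass. Both herbicidal effect and crop effect rated visually three weeks later.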

wild oat [5] = assay: Test Example 5: herbicidal effect by foliage application, plastic box (Table 20, symbol I); format: in vivo, wild oat (Avena fatua); conditions: foliage application, three weeks after application
How it was run: as §4

windgrass [6] = assay: Test Example 5: herbicidal effect by foliage application, plastic box (Table 20, symbol L); format: in vivo, windgrass (Apera spica-venti); conditions: foliage application, three weeks after application
How it was run: as §4

lambsquarters = assay: Test Example 5: herbicidal effect by foliage application, plastic box (Table 20, symbol O); format: in vivo, lambsquarters (Chenopodium album); conditions: foliage application, three weeks after application
How it was run: as §4

persian speedwell = assay: Test Example 5: herbicidal effect by foliage application, plastic box (Table 20, symbol R); format: in vivo, Persian speedwell (Veronica persica); conditions: foliage application, three weeks after application
How it was run: as §4

[7] = amount of applied herbicide 320 g/ha
[8] = amount of applied herbicide 390 g/ha

COc1ccc(-c2oc3ccc(Cl)cc3c2-c2c(O)c(C)nn(C)c2=O)cc1 [9-002]
Herbicidal effect, B: Japanese bulrush (Japanese bulrush [1]; [7]): 3 (Herbicidal rate of 40% or more and less than 70%) | Herbicidal effect, C: oval-leafed pondweed (oval-leafed pondweed; [7]): 2 (Herbicidal rate of 20% or more and less than 40%) | herbicidal effect rating, B: Japanese bulrush (Japanese bulrush [2]; AAH 320 g/ha): 0 (Herbicidal rate of 5% or less (almost no effect)) | Herbicidal effect on D (Chinese sprangletop), foliage application (Chinese sprangletop; [7]): 0 (Herbicidal rate of 5% or less (almost no effect)) | Herbicidal effect on E (rice flat sedge), foliage application (rice flat sedge; [7]): 2 (Herbicidal rate of 20% or more and less than 40%) | G: green foxtail, herbicidal effect grade (green foxtail; [7]): 1 (Herbicidal rate of 5% or more and less than 20%) | I: wild oat, herbicidal effect grade (wild oat [3]; [7]): 0 (Herbicidal rate of 5% or less (almost no effect)) | K: Italian ryegrass, herbicidal effect grade (Italian ryegrass; [7]): 3 (Herbicidal rate of 40% or more and less than 70%) | L: windgrass, herbicidal effect grade (windgrass [4]; [7]): 5 (Herbicidal rate of 90% or more (almost completely withered)) | N: redroot pigweed, herbicidal effect grade (redroot pigweed; [7]): 4 (Herbicidal rate of 70% or more and less than 90%) | P: chickweed, herbicidal effect grade (chickweed; [7]): 4 (Herbicidal rate of 70% or more and less than 90%) | herbicidal effect on southern crabgrass (F) (southern crabgrass; 320 g/ha): 0 (Herbicidal rate of 5% or less (almost no effect)) | herbicidal effect on wild oat (I) (wild oat [5]; 320 g/ha): 0 (Herbicidal rate of 5% or less (almost no effect)) | herbicidal effect on windgrass (L) (windgrass [6]; 320 g/ha): 1 (Herbicidal rate of 5% or more and less than 20%) | herbicidal effect on lambsquarters (O) (lambsquarters; 320 g/ha): 4 (Herbicidal rate of 70% or more and less than 90%) | herbicidal effect on persian speedwell (R) (persian speedwell; 320 g/ha): 5 (Herbicidal rate of 90% or more (almost completely withered))

CCCC(=O)Oc1c(C)nn(C)c(=O)c1-c1c(-c2ccc(F)cc2)oc2ccc(C)cc12 [9-005]
Herbicidal effect, B: Japanese bulrush (Japanese bulrush [1]; [8]): 4 (Herbicidal rate of 70% or more and less than 90%) | Herbicidal effect, C: oval-leafed pondweed (oval-leafed pondweed; [8]): 3 (Herbicidal rate of 40% or more and less than 70%) | herbicidal effect rating, B: Japanese bulrush (Japanese bulrush [2]; AAH 390 g/ha): 1 (Herbicidal rate of 5% or more and less than 20%) | Herbicidal effect on D (Chinese sprangletop), foliage application (Chinese sprangletop; [8]): 0 (Herbicidal rate of 5% or less (almost no effect)) | Herbicidal effect on E (rice flat sedge), foliage application (rice flat sedge; [8]): 2 (Herbicidal rate of 20% or more and less than 40%) | G: green foxtail, herbicidal effect grade (green foxtail; [8]): 0 (Herbicidal rate of 5% or less (almost no effect)) | I: wild oat, herbicidal effect grade (wild oat [3]; [8]): 0 (Herbicidal rate of 5% or less (almost no effect)) | K: Italian ryegrass, herbicidal effect grade (Italian ryegrass; [8]): 0 (Herbicidal rate of 5% or less (almost no effect)) | L: windgrass, herbicidal effect grade (windgrass [4]; [8]): 0 (Herbicidal rate of 5% or less (almost no effect)) | N: redroot pigweed, herbicidal effect grade (redroot pigweed; [8]): 3 (Herbicidal rate of 40% or more and less than 70%) | P: chickweed, herbicidal effect grade (chickweed; [8]): 5 (Herbicidal rate of 90% or more (almost completely withered)) | herbicidal effect on southern crabgrass (F) (southern crabgrass; 390 g/ha): 0 (Herbicidal rate of 5% or less (almost no effect)) | herbicidal effect on wild oat (I) (wild oat [5]; 390 g/ha): 0 (Herbicidal rate of 5% or less (almost no effect)) | herbicidal effect on windgrass (L) (windgrass [6]; 390 g/ha): 0 (Herbicidal rate of 5% or less (almost no effect)) | herbicidal effect on lambsquarters (O) (lambsquarters; 390 g/ha): 3 (Herbicidal rate of 40% or more and less than 70%) | herbicidal effect on persian speedwell (R) (persian speedwell; 390 g/ha): 5 (Herbicidal rate of 90% or more (almost completely withered))

COc1ccc(-c2oc3ccc(C)cc3c2-c2c(O)c(C)nn(C)c2=O)cc1 [9-007]
Herbicidal effect, B: Japanese bulrush (Japanese bulrush [1]; [7]): 5 (Herbicidal rate of 90% or more (almost completely withered)) | Herbicidal effect, C: oval-leafed pondweed (oval-leafed pondweed; [7]): 5 (Herbicidal rate of 90% or more (almost completely withered)) | herbicidal effect rating, B: Japanese bulrush (Japanese bulrush [2]; AAH 320 g/ha): 5 (Herbicidal rate of 90% or more (almost completely withered)) | Herbicidal effect on D (Chinese sprangletop), foliage application (Chinese sprangletop; [7]): 1 (Herbicidal rate of 5% or more and less than 20%) | Herbicidal effect on E (rice flat sedge), foliage application (rice flat sedge; [7]): 5 (Herbicidal rate of 90% or more (almost completely withered)) | G: green foxtail, herbicidal effect grade (green foxtail; [7]): 3 (Herbicidal rate of 40% or more and less than 70%) | I: wild oat, herbicidal effect grade (wild oat [3]; [7]): 1 (Herbicidal rate of 5% or more and less than 20%) | K: Italian ryegrass, herbicidal effect grade (Italian ryegrass; [7]): 5 (Herbicidal rate of 90% or more (almost completely withered)) | L: windgrass, herbicidal effect grade (windgrass [4]; [7]): 0 (Herbicidal rate of 5% or less (almost no effect)) | N: redroot pigweed, herbicidal effect grade (redroot pigweed; [7]): 5 (Herbicidal rate of 90% or more (almost completely withered)) | P: chickweed, herbicidal effect grade (chickweed; [7]): 4 (Herbicidal rate of 70% or more and less than 90%) | herbicidal effect on southern crabgrass (F) (southern crabgrass; 320 g/ha): 5 (Herbicidal rate of 90% or more (almost completely withered)) | herbicidal effect on wild oat (I) (wild oat [5]; 320 g/ha): 4 (Herbicidal rate of 70% or more and less than 90%) | herbicidal effect on windgrass (L) (windgrass [6]; 320 g/ha): 4 (Herbicidal rate of 70% or more and less than 90%) | herbicidal effect on lambsquarters (O) (lambsquarters; 320 g/ha): 5 (Herbicidal rate of 90% or more (almost completely withered)) | herbicidal effect on persian speedwell (R) (persian speedwell; 320 g/ha): 5 (Herbicidal rate of 90% or more (almost completely withered))

CCCC(=O)Oc1c(C)nn(C)c(=O)c1-c1c(-c2ccc(OC)cc2)oc2ccc(C)cc12 [9-008]
Herbicidal effect, B: Japanese bulrush (Japanese bulrush [1]; [7]): 5 (Herbicidal rate of 90% or more (almost completely withered)) | Herbicidal effect, C: oval-leafed pondweed (oval-leafed pondweed; [7]): 5 (Herbicidal rate of 90% or more (almost completely withered)) | herbicidal effect rating, B: Japanese bulrush (Japanese bulrush [2]; AAH 320 g/ha): 5 (Herbicidal rate of 90% or more (almost completely withered)) | Herbicidal effect on D (Chinese sprangletop), foliage application (Chinese sprangletop; [7]): 3 (Herbicidal rate of 40% or more and less than 70%) | Herbicidal effect on E (rice flat sedge), foliage application (rice flat sedge; [7]): 5 (Herbicidal rate of 90% or more (almost completely withered)) | G: green foxtail, herbicidal effect grade (green foxtail; [7]): 2 (Herbicidal rate of 20% or more and less than 40%) | I: wild oat, herbicidal effect grade (wild oat [3]; [7]): 0 (Herbicidal rate of 5% or less (almost no effect)) | K: Italian ryegrass, herbicidal effect grade (Italian ryegrass; [7]): 4 (Herbicidal rate of 70% or more and less than 90%) | L: windgrass, herbicidal effect grade (windgrass [4]; [7]): 0 (Herbicidal rate of 5% or less (almost no effect)) | N: redroot pigweed, herbicidal effect grade (redroot pigweed; [7]): 5 (Herbicidal rate of 90% or more (almost completely withered)) | P: chickweed, herbicidal effect grade (chickweed; [7]): 0 (Herbicidal rate of 5% or less (almost no effect)) | herbicidal effect on southern crabgrass (F) (southern crabgrass; 320 g/ha): 3 (Herbicidal rate of 40% or more and less than 70%) | herbicidal effect on wild oat (I) (wild oat [5]; 320 g/ha): 3 (Herbicidal rate of 40% or more and less than 70%) | herbicidal effect on windgrass (L) (windgrass [6]; 320 g/ha): 0 (Herbicidal rate of 5% or less (almost no effect)) | herbicidal effect on lambsquarters (O) (lambsquarters; 320 g/ha): 4 (Herbicidal rate of 70% or more and less than 90%) | herbicidal effect on persian speedwell (R) (persian speedwell; 320 g/ha): 5 (Herbicidal rate of 90% or more (almost completely withered))
